Assays:
[1] = system: HCV replicon cells Huh 9B; type: cell-based; conditions: Huh 9B replicon cells, 72 h, methylene blue, total cell area reduced by 50%
[2] = in vitro; type: in vitro ADME, Canine; conditions: dog, MDCK
Protocol: Cells used: MDCK (Madin-Darby Canine Kidney) cells, ATCC collection # CCL-34, are used to model the intestinal barrier. Cell culture conditions: cells were cultured at 37° C. in a 5% CO2 environment and split twice a week on seeding at 4×10^5 cells/flask (75 cm^2) on day 1 and 2×10^5 cells/flask on day 4. The culture medium consisted of MEM+Earle's-L Glutamine (Gibco #21090-022) supplemented with 10% Australian Fetal Calf Serum (Sigma #F6178), 2 mM L-Glutamine (Gibco #25030-024) and 1× Non Essential Amino Acids (Gibco #11140-035)
On day 1, a 24-well plate (Sarstedt, #83.1836.300) was filled with individual 3 lam pore membrane inserts (Millipore, #PITP 012 50). Each plate allows the testing of a cocktail of 3 control compounds and 11 test compounds in duplicate. The wells (outside the inserts) were filled with 500 μl of culture medium.
A flask of cells was trypsinised and a cell count carried out. Cells were diluted to 1.2×10^5 cells/ml (1×10^5 cells/cm^2) and 500 μl dispensed in each insert on the 24-well plate. The plate was incubated at 37° C. in a 5% CO2 environment for 48 hours.
On day 3, the culture medium was removed from the wells, then the inserts and is replaced with fresh culture medium in the wells, then the inserts (500111 per well and insert) The plate was incubated at 37° C. in a 5% CO2 environment for 24 hours.
On day 4, the controls cocktail and test compounds solutions were made up in HBSS buffer (Hank's Balanced Salt Solution, Gibco #14025-050) at 1011M. The final controls and test compounds concentration in the assay was 10 μM, and DMSO concentration maintained at 0.1% (0.3% for the controls cocktail). The controls cocktail was made up of Atenolol (Sigma # A-7655), Dexamethasone (Sigma #D-1756) and Propranolol (Sigma # P-0884).
A 24-well plate was filled with 500 μl of HBSS buffer per well (assay plate) The culture medium was removed from the wells and inserts. The inserts were washed three times with approximately 500 μl of HBSS buffer. The inserts were transferred to the assay plate. Controls cocktail and test compounds solutions were dispensed inside the inserts (500 μl per insert), in duplicates. The assay plate was incubated at 37° C. in a 5% CO2 environment for 2 hours.
After 2 hours, the inserts were removed from the assay plate and transferred into a new 24-well plate (wash plate) The assay plate containing the receiver solutions was left aside for later sampling. To measure the mass balance, 150 μl were sampled from each insert (donor solutions) and dispensed into 150 μl of HPLC-grade Acetonitrile (Fisher Scientific) containing an internal standard and 0.05% formic acid.
The donor solutions were aspirated and discarded from each insert, and the inserts washed once with approximately 500 μl of HBSS buffer. A 24-well plate was filled with 500 μl of HBSS buffer per well (monolayer integrity plate) A Lucifer Yellow (Sigma #L0144) solution was made up at 1001.1M in HBSS buffer. The empty inserts were transferred into the monolayer integrity plate and filled with 500 μl of the Lucifer Yellow solution to determine the cell monolayers integrity and leftover of the solution was kept in a fridge. The plate was incubated at 37° C. in a 5% CO2 environment for 2 hours.
In the meantime, 150 μl were sampled from the assay plate (receiver solutions) and dispensed into 150 μl of HPLC-grade Acetonitrile containing an internal standard and 0.05% formic acid. A calibration curve was made for each mix of compounds (as appropriate depending on compounds molecular weights) A 10 μM mix of compounds in HBSS buffer was diluted 1:1 in HPLC-grade Acetonitrile containing an internal standard and 0.05% formic acid. A 1:1 mix of HBSS buffer and HPLC-grade Acetonitrile containing an internal standard and 0.05% formic acid was made up and used to make up the calibration curve (2 fold dilutions), with concentrations ranging from 10 μM to 0.078 μM. […]

With COC(=O)N[C@H](C(=O)N1CCC[C@H]1c1ncc(-c2ccc(-c3ccc(C(=O)Nc4ccc(CN5CCS(=O)(=O)CC5)cc4)cc3)cc2)[nH]1)C(C)C [Example 3, Methyl N-[(1S)-1-[(2S)-2-[5-[4-[4-[[4-[(1,1-dioxo-1,4-thiazinan-4-yl)methyl]phenyl]carbamoyl]phenyl]phenyl]-1H-imidazol-2-yl]pyrrolidine-1-carbonyl]-2-methyl-propyl]carbamate] the “HCV TD50 Replicon” value [1] was greater than 25 µM and the Papp at 2 h, 10 µM [2] was 4.1 ×10⁻⁶ cm/s.

COC(=O)N[C@H](C(=O)N1CCC[C@@H]1c1ncc(-c2ccc(-c3ccc(C(=O)Nc4ccc(CN5CCS(=O)(=O)CC5)cc4)cc3)cc2)[nH]1)C(C)C [Example 20, Methyl N-[(1S)-1-[(2R)-2-[5-[4-[4-[[4-[(1,1-dioxo-1,4-thiazinan-4-yl)methyl]phenyl]carbamoyl]phenyl]phenyl]-1H-imidazol-2-yl]pyrrolidine-1-carbonyl]-2-methyl-propyl]carbamate] showed a Papp at 2 h, 10 µM [2] of 0.4 ×10⁻⁶ cm/s.

With COC(=O)N[C@H](C(=O)N1CCOC[C@H]1c1ncc(-c2ccc(-c3ccc(C(=O)Nc4ccc(CN5CCS(=O)(=O)CC5)cc4)cc3)cc2)[nH]1)c1ccccc1 [Example 47, Methyl N-[(1S)-2-[(3R)-3-[5-[4-[4-[[4-[(1,1-dioxo-1,4-thiazinan-4-yl)methyl]phenyl]carbamoyl]phenyl]phenyl]-1H-imidazol-2-yl]morpholin-4-yl]-2-oxo-1-phenyl-ethyl]carbamate] the “HCV TD50 Replicon” value [1] was greater than 25 µM and the Papp at 2 h, 10 µM [2] was 0.1 ×10⁻⁶ cm/s.

With COC(=O)N[C@H](C(=O)N1CCC[C@H]1c1ncc(-c2ccc(-c3ccc(C(=O)Nc4ccc(CN5CCS(=O)(=O)CC5)cc4)cc3)c(C)c2)[nH]1)C(C)C [Example 54, Methyl N-[(1S)-1-[(2S)-2-[5-[4-[4-[[4-[(1,1-dioxo-1,4-thiazinan-4-yl)methyl]phenyl]carbamoyl]phenyl]-3-methyl-phenyl]-1H-imidazol-2-yl]pyrrolidine-1-carbonyl]-2-methyl-propyl]carbamate] the “HCV TD50 Replicon” value [1] was greater than 25 µM and the Papp at 2 h, 10 µM [2] was 6 ×10⁻⁶ cm/s.

With COC(=O)N[C@@H](C(=O)N1CCC[C@H]1c1ncc(-c2ccc(-c3ccc(C(=O)Nc4ccc(CN5CCS(=O)(=O)CC5)cc4)cc3)cc2)[nH]1)c1ccccc1 [Example 7, Methyl N-[(1R)-2-[(2S)-2-[5-[4-[4-[[4-[(1,1-dioxo-1,4-thiazinan-4-yl)methyl]phenyl]carbamoyl]phenyl]phenyl]-1H-imidazol-2-yl]pyrrolidin-1-yl]-2-oxo-1-phenyl-ethyl]carbamate] the “HCV TD50 Replicon” value [1] was greater than 25 µM and the Papp at 2 h, 10 µM [2] was 0.4 ×10⁻⁶ cm/s.

With CC(C)(C)OC(=O)N[C@@H](C(=O)N1CCC[C@H]1c1ncc(-c2ccc(-c3ccc(C(=O)Nc4ccc(CN5CCS(=O)(=O)CC5)cc4)cc3)cc2)[nH]1)c1ccccc1 [Example 2, Tert-butyl N-[(1R)-2-[(2S)-2-[5-[4-[4-[[4-[(1,1-dioxo-1,4-thiazinan-4-yl)methyl]phenyl]carbamoyl]phenyl]phenyl]-1H-imidazol-2-yl]pyrrolidin-1-yl]-2-oxo-1-phenyl-ethyl]carbamate] the “HCV TD50 Replicon” value [1] was greater than 25 µM and the Papp at 2 h, 10 µM [2] was 0.2 ×10⁻⁶ cm/s.

With CCN(CC)[C@@H](C(=O)N1CCC[C@H]1c1ncc(-c2ccc(-c3ccc(C(=O)Nc4ccc(CN5CCS(=O)(=O)CC5)cc4)cc3)cc2)[nH]1)c1ccccc1 [Example 8, 4-[4-[2-[(2S)-1-[(2R)-2-(diethylamino)-2-phenyl-acetyl]pyrrolidin-2-yl]-1H-imidazol-5-yl]phenyl]-N-[4-[(1,1-dioxo-1,4-thiazinan-4-yl)methyl]phenyl]benzamide] the “HCV TD50 Replicon” value [1] was greater than 25 µM and the Papp at 2 h, 10 µM [2] was 1.2 ×10⁻⁶ cm/s.

In the case of COC(=O)N[C@H](C(=O)N1CCC[C@H]1c1ncc(-c2ccc(-c3ccc(C(=O)Nc4ccc(CN5CCS(=O)(=O)CC5)cc4)cc3)cc2)[nH]1)c1ccccc1 [Example 6, Methyl N-[(1S)-2-[(2S)-2-[5-[4-[4-[[4-[(1,1-dioxo-1,4-thiazinan-4-yl)methyl]phenyl]carbamoyl]phenyl]phenyl]-1H-imidazol-2-yl]pyrrolidin-1-yl]-2-oxo-1-phenyl-ethyl]carbamate], the “HCV TD50 Replicon” value [1] is reported as greater than 25 µM and the Papp at 2 h, 10 µM [2] is reported as 0.1 ×10⁻⁶ cm/s.

With CN(C)[C@@H](C(=O)N1CCC[C@H]1c1ncc(-c2ccc(-c3ccc(C(=O)Nc4ccc(CN5CCS(=O)(=O)CC5)cc4)cc3)cc2)[nH]1)c1ccccc1 [Example 9, 4-[4-[2-[(2S)-1-[(2R)-2-(dimethylamino)-2-phenyl-acetyl]pyrrolidin-2-yl]-1H-imidazol-5-yl]phenyl]-N-[4-[(1,1-dioxo-1,4-thiazinan-4-yl)methyl]phenyl]benzamide] the “HCV TD50 Replicon” value [1] was greater than 25 µM and the Papp at 2 h, 10 µM [2] was 0.9 ×10⁻⁶ cm/s.

For COC(=O)N[C@H](C(=O)N1CCC[C@H]1c1ncc(-c2ccc(-c3ccc(C(=O)Nc4ccc(CN5CCS(=O)(=O)CC5)cc4)cc3)cc2)[nH]1)C(C)(C)C [Example 5, Methyl N-[(1S)-1-[(2S)-2-[5-[4-[4-[[4-[(1,1-dioxo-1,4-thiazinan-4-yl)methyl]phenyl]carbamoyl]phenyl]phenyl]-1H-imidazol-2-yl]pyrrolidine-1-carbonyl]-2,2-dimethyl-propyl]carbamate], the “HCV TD50 Replicon” value [1] was 3.9 µM and the Papp at 2 h, 10 µM [2] was 2 ×10⁻⁶ cm/s.

In the case of CC[C@H](C)[C@H](NC(=O)OC)C(=O)N1CCC[C@H]1c1ncc(-c2ccc(-c3ccc(C(=O)Nc4ccc(CN5CCS(=O)(=O)CC5)cc4)cc3)cc2)[nH]1 [Example 16, Methyl N-[(1S,2S)-1-[(2S)-2-[5-[4-[4-[[4-[(1,1-dioxo-1,4-thiazinan-4-yl)methyl]phenyl]carbamoyl]phenyl]phenyl]-1H-imidazol-2-yl]pyrrolidine-1-carbonyl]-2-methyl-butyl]carbamate], the “HCV TD50 Replicon” value [1] is reported as greater than 25 µM and the Papp at 2 h, 10 µM [2] is reported as 1 ×10⁻⁶ cm/s.

With COC(=O)N[C@@H](CC(C)C)C(=O)N1CCC[C@H]1c1ncc(-c2ccc(-c3ccc(C(=O)Nc4ccc(CN5CCS(=O)(=O)CC5)cc4)cc3)cc2)[nH]1 [Example 14, Methyl N-[(1S)-1-[(2S)-2-[5-[4-[4-[[4-[(1,1-dioxo-1,4-thiazinan-4-yl)methyl]phenyl]carbamoyl]phenyl]phenyl]-1H-imidazol-2-yl]pyrrolidine-1-carbonyl]-3-methyl-butyl]carbamate] the “HCV TD50 Replicon” value [1] was greater than 25 µM and the Papp at 2 h, 10 µM [2] was 1.2 ×10⁻⁶ cm/s.

Molecule CCCS(=O)(=O)N1CCN(Cc2ccc(NC(=O)c3ccc(-c4ccc(-c5cnc([C@@H]6CCCN6C(=O)[C@@H](NC(=O)OC)C(C)C)[nH]5)cc4)cc3)cc2)CC1 [Example 40, Methyl N-[(1S)-2-methyl-1-[(2S)-2-[5-[4-[4-[[4-[(4-propylsulfonylpiperazin-1-yl)methyl]phenyl]carbamoyl]phenyl]phenyl]-1H-imidazol-2-yl]pyrrolidine-1-carbonyl]propyl]carbamate] has a Papp at 2 h, 10 µM [2] of 0.7 ×10⁻⁶ cm/s.

Reference: US20100215618A1, “NOVEL COMPOUNDS - 644” (Arrow Therapeutics Limited, priority 2009, published 2010)
